Where two headings read alike, the source gives them in different places. *1 amine or outer side, *2 acyl side, *3 side chain or, on linkers, in order; H or OH if unused. Where a SMILES comes first, the peptide text is derived from it. Bridges are numbered along the chain shown (N, C = ends). [ ]: non-standard residue; d: D form. The star is where a group is joined. ξ: configuration not given here. X1 = O=C([C@@H]1CC[C@H](O)N1[*:1])[*:2]; NMeY = CN[C@@H](Cc1ccc(O)cc1)C(=O)O; Ile(3ξ) = CCC(C)[C@H](N)C(=O)O; Isovaleryl = CC(C)CC(=O)*; Isobutyryl = CC(C)C(=O)*
Legend:
[1] = target: T1, Human neutrophil elastase (Homo sapiens, UniProt P08246); assay: HNE inhibitory activity in vitro (fluorescence-quenched substrate); assay type: biochemical
T1 construct: purchased Elastin Products Company, Inc. (EPC, Owensville, USA) SE563
T1 sequence (P08246 30-267): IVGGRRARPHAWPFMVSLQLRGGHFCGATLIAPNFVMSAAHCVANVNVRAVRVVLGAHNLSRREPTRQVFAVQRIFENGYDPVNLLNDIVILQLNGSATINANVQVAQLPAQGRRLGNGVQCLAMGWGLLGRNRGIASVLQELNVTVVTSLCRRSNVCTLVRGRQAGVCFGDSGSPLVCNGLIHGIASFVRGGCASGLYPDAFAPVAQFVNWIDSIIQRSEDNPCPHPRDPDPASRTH
Experimental: Human neutrophil elastase (cat. no. SE563) is purchased from Elastin Products Company, Inc. (EPC, Owensville, USA). The dry powder (purity >95% stated by the supplier) was dissolved in 20 mM sodium acetate buffer, pH 5.0, 50% (v/v) glycerol, and frozen at −80° C. in aliquots.
The fluorescence-quenched substrate (DABCYL-Ser-Glu-Val^Asn-Leu-Asp-Ala-Glu-Phe-EDANS, where ^ indicates the scissile bond, identified by MS analysis) was purchased from Bachem AG (Bubendorf, Switzerland), and kept as a 5 mM stock solution in DMSO at −20° C. All other chemicals were of analytical grade.
Enzymatic reactions were conducted in 100 mM Tris/HCl buffer at pH 7.5, containing 500 mM NaCl, and 0.05% (w/v) CHAPS.
All protein and peptide containing solutions are handled in siliconized tubes (Life Systems Design, Merenschwand, Switzerland).
(§1) The compound solutions as well as the enzyme and the substrate solutions are transferred to the 384-well plates (black Cliniplate; cat. no. 95040020 Labsystems Oy, Finland) by means of a CyBi-Well 96-channel pipettor (CyBio AG, Jena, Germany).
(§2) For fluorescence intensity (FI) measurements an Ultra Evolution reader (TECAN, Maennedorf, Switzerland) is used. The instrument is equipped with a combination of a 350 nm (20 nm bandwidth) and a 500 nm (25 nm bandwidth) bandpass filter for fluorescence excitation and emission acquisition, respectively. To increase the signal:background ratio, an appropriate dichroic mirror is employed. The optical filters and the dichroic mirror are purchased from TECAN. The fluorophores in each well are excited by three flashes per measurement.

human kallikrein 7 = human kallikrein 7 (Homo sapiens, UniProt P49862); assay: Kallikrein-7 inhibitory activity in vitro (fluorescence-quenched substrate); assay type: biochemical
Experimental: (§3) IC50 for human kallikrein can be measured using the fluorescence-quenched substrate Ac-Glu-Asp(EDANS)-Lys-Pro-Ale-Leu-Phe^Arg-Leu-Gly-Lys(DABCYL)-Glu-NH2 (where ^ indicates the scissile bond, identified by MS analysis) which can be purchased from Biosyntan (Berlin, Germany). Enzymatic reactions are conducted in 50 mM sodium citrate buffer at pH 5.6 containing 150 mM NaCl and 0.05% (w/v) CHAPS. For the determination of IC50 values the assay is performed at room temperature in 384-well plates. All final assay volumes are 30 μl. Test compounds are dissolved in 90% (v/v) DMSO/water and diluted in water (containing 0.05% (w/v) CHAPS) to 3-times the desired assay concentration. The 11 final compound concentrations are: 0.3 nM, 1 nM, 3 nM, 10 nM, 30 nM, 100 nM, 300 nM, 1 μM, 3 μM, 10 μM and 30 μM. For each assay, 10 μl water/CHAPS (±test compound) are added per well, followed by 10 μl protease solution (diluted with 1.5× assay buffer). The protease concentration in final assay solution is 0.2 nM (according to the enzyme concentrations determined by the Bradford method). After 1 hour of incubation at room temperature, the reaction is started by addition of 10 μl substrate solution (substrate dissolved in 1.5× assay buffer, final concentration is 2 μM). […] The IC50 value is calculated from the plot of percentage of inhibition vs. inhibitor concentration using non-linear regression analysis software (XLfit, Vers. 4.0; ID Business Solution Ltd., Guildford, Surrey, UK).
The fluorescence-quenched substrate Ac-Glu-Asp(EDANS)-Lys-Pro-Ale-Leu-Phe^Arg-Leu-Gly-Lys(DABCYL)-Glu-NH2 (where ^ indicates the scissile bond, identified by MS analysis) is purchased from Biosyntan (Berlin, Germany) and kept as a 5 mM stock solution in DMSO at −20° C. All other chemicals are of analytical grade.
Enzymatic reactions are conducted in 50 mM sodium citrate buffer at pH 5.6 containing 150 mM NaCl and 0.05% (w/v) CHAPS.
as §1, with “All protein and peptide containing solutions are handled in siliconized tubes (Life Systems Design, Merenschwand, Switzerland). The” for “The”
as §2
as §3, with “For” for “IC50 for human kallikrein can be measured using the fluorescence-quenched substrate Ac-Glu-Asp(EDANS)-Lys-Pro-Ale-Leu-Phe^Arg-Leu-Gly-Lys(DABCYL)-Glu-NH2 (where ^ indicates the scissile bond, identified by MS analysis) which can be purchased from Biosyntan (Berlin, Germany). Enzymatic reactions are conducted in 50 mM sodium citrate buffer at pH 5.6 containing 150 mM NaCl and 0.05% (w/v) CHAPS. For”, “volumes were” for “volumes are”, “concentration was” for “concentration is”

[2] = Table 11, read-out: human neutrophile elastase IC 50
[3] = Table 11, read-out: hKallikrein7 IC 50

human kallikrein 7, sequence (P49862 30-253): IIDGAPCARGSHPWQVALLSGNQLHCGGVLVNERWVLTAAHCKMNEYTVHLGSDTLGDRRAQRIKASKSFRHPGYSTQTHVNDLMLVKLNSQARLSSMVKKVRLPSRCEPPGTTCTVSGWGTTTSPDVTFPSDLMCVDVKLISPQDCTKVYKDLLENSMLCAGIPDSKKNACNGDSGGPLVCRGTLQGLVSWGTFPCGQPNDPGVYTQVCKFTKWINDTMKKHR

Row | Structure (SMILES) | IC50 [1, 2] | IC50 (human kallikrein 7; [3]) | IC50 (human kallikrein 7; read-out: IC50 for human kallikrein 7) | IC50 [1] | IC50 (human kallikrein 7; hKallikrein7 IC 50, Table 11) | IC50 (human kallikrein 7; hKallikrein7 IC50, Table 10)
1 | CCCOC1CCC2NC(=O)C(CC(C)C)NC(=O)C(NC(=O)C(CCC(N)=O)NC(=O)C(C)C)C(C)OC(=O)C(C(C)CC)NC(=O)C(Cc3ccc(OCC=Cc4ccccc4)cc3)N(C)C(=O)C(C(C)CC)N1C2=O (stereo not shown) [example 32] | 30 nM | 100 nM |  |  |  | 
2 | CCC(C)[C@@H]1NC(=O)[C@H](Cc2ccc(OCC(=O)OC(C)(C)C)cc2)N(C)C(=O)[C@H](C(C)CC)N2CCCC(NC(=O)[C@H](CC(C)C)NC(=O)[C@@H](NC(=O)[C@H](CCC(N)=O)NC(=O)C(C)C)[C@@H](C)OC1=O)C2=O (stereo partly shown) [example 33] | 35 nM | 4.5 nM | 5 nM |  |  | 
3 | CCCOC1CCC2NC(=O)C(CC(C)C)NC(=O)C(NC(=O)C(CCC(N)=O)NC(=O)C(C)C)C(C)OC(=O)C(C(C)CC)NC(=O)C(Cc3ccc(OCC(=O)OC(C)(C)C)cc3)N(C)C(=O)C(C(C)CC)N1C2=O (stereo not shown) [example 34] | 5 nM | 4 nM |  |  |  | 
4 | CCC=CCOc1ccc(CC2C(=O)NC(C(C)CC)C(=O)OC(C)C(NC(=O)C(CCC(N)=O)NC(=O)C(C)C)C(=O)NC(CC(C)C)C(=O)NC3CCC(OCCC)N(C3=O)C(C(C)CC)C(=O)N2C)cc1 (stereo not shown) [example 35] | 3 nM | 8.5 nM |  |  |  | 
5 | CCCOC1CCC2NC(=O)C(CC(C)C)NC(=O)C(NC(=O)C(CCC(N)=O)NC(=O)C(C)C)C(C)OC(=O)C(C(C)CC)NC(=O)C(Cc3ccc(OCC=CC(F)(F)F)cc3)N(C)C(=O)C(C(C)CC)N1C2=O (stereo not shown) [example 36] | 3.5 nM | 8.5 nM |  |  |  | 
6 | CCCOC1CCC2NC(=O)C(CC(C)C)NC(=O)C(NC(=O)C(CCC(N)=O)NC(=O)C(C)C)C(C)OC(=O)C(C(C)CC)NC(=O)C(Cc3ccc(OC)cc3)N(C)C(=O)C(C(C)CC)N1C2=O (stereo not shown) [example 37] | 2.5 nM | 4.5 nM |  |  |  | 
7 | CCCOC1CCC2NC(=O)C(CC(C)C)NC(=O)C(NC(=O)C(CCC(N)=O)NC(=O)C(C)C)C(C)OC(=O)C(C(C)CC)NC(=O)C(Cc3ccc(OCC=C(C)C)cc3)N(C)C(=O)C(C(C)CC)N1C2=O (stereo not shown) [example 38] | 1.5 nM | 4 nM |  |  |  | 
8 | CCCOC1CCC2NC(=O)C(CC(C)C)NC(=O)C(NC(=O)C(CCC(N)=O)NC(=O)C(C)C)C(C)OC(=O)C(C(C)CC)NC(=O)C(Cc3ccc(OCc4ccccc4)cc3)N(C)C(=O)C(C(C)CC)N1C2=O (stereo not shown) [example 39] | 3.5 nM | 8.5 nM |  |  |  | 
9 | C=CCOc1ccc(CC2C(=O)NC(C(C)CC)C(=O)OC(C)C(NC(=O)C(CCC(N)=O)NC(=O)C(C)C)C(=O)NC(CC(C)C)C(=O)NC3CCC(OCCC)N(C3=O)C(C(C)CC)C(=O)N2C)cc1 (stereo not shown) [example 40] | 2.5 nM | 6.5 nM |  |  |  | 
10 | C#CCOc1ccc(CC2C(=O)NC(C(C)CC)C(=O)OC(C)C(NC(=O)C(CCC(N)=O)NC(=O)C(C)C)C(=O)NC(CC(C)C)C(=O)NC3CCC(OCCC)N(C3=O)C(C(C)CC)C(=O)N2C)cc1 (stereo not shown) [example 41] | 1 nM | 2 nM |  |  |  | 
11 | CCCOC1CCC2NC(=O)C(CC(C)C)NC(=O)C(NC(=O)C(CCC(N)=O)NC(=O)C(C)C)C(C)OC(=O)C(C(C)CC)NC(=O)C(Cc3ccc(OCc4cc(C)n(C)n4)cc3)N(C)C(=O)C(C(C)CC)N1C2=O (stereo not shown) [example 42] | 1 nM | 1 nM |  |  |  | 
12 | CCC(C)[C@@H]1NC(=O)[C@H](Cc2ccc(OCC(=O)NCCOCCOCC(=O)OC(C)(C)C)cc2)N(C)C(=O)[C@H](C(C)CC)N2CCCC(NC(=O)[C@H](CC(C)C)NC(=O)[C@@H](NC(=O)[C@H](CCC(N)=O)NC(=O)C(C)C)[C@@H](C)OC1=O)C2=O (stereo partly shown) [example 44] | 9 nM | 3.5 nM |  |  |  | 
13 | CCCOC1CCC2NC(=O)C(CC(C)C)NC(=O)C(NC(=O)C(CCC(N)=O)NC(=O)C(C)C)C(C)OC(=O)C(C(C)CC)NC(=O)C(Cc3ccc(OCc4cn(CCOCCOCCN=[N+]=[N-])nn4)cc3)N(C)C(=O)C(C(C)CC)N1C2=O (stereo not shown) [example 45] | 3 nM | 2 nM |  |  |  | 
14 | CCC(C)[C@@H]1NC(=O)[C@H](Cc2ccc(O)cc2)N(C)C(=O)[C@H](C(C)CC)NC(=O)[C@@H]2CC[C@H](O)N2C(=O)[C@H](CC(C)C)NC(=O)[C@@H](NC(=O)[C@H](CCC(N)=O)NC(=O)C(C)C)[C@@H](C)OC1=O (stereo partly shown) [example 46] (Isobutyryl-QTL[X1][Ile(3ξ)][NMeY][Ile(3ξ)]; ester 2-C) |  |  |  | 100 nM | 10 nM | 
15 | CCC(C)[C@@H]1NC(=O)[C@H](Cc2ccc(O)cc2)N(C)C(=O)[C@H](C(C)CC)N2C(=O)C(CC[C@@H]2O)NC(=O)[C@H](CC(C)C)NC(=O)[C@@H](NC(=O)[C@H](CCC(=O)O)NC(=O)C(C)C)[C@@H](C)OC1=O (stereo partly shown) [example 47] |  |  |  | 10 nM | 100 nM | 
16 | CCC(C)C(=O)N[C@@H](CCC(N)=O)C(=O)N[C@@H]1C(=O)N[C@@H](CC(C)C)C(=O)NC2CC[C@H](O)N(C2=O)[C@@H](C(C)CC)C(=O)N(C)[C@@H](Cc2ccc(O)cc2)C(=O)N[C@@H](C(C)CC)C(=O)O[C@@H]1C (stereo partly shown) [formula III] |  |  |  | 10 nM | 0.4 nM | 0.4 nM
17 | CCC(C)C(=O)N[C@@H](CCC(N)=O)C(=O)N[C@@H]1C(=O)N[C@@H](CC(C)C)C(=O)N[C@H]2CC=CN(C2=O)[C@H](C(C)CC)C(=O)N(C)[C@@H](Cc2ccc(O)cc2)C(=O)N[C@@H](C(C)CC)C(=O)O[C@@H]1C (stereo partly shown) [formula IV] |  |  |  | 70 nM | 5 nM | 
18 | CC(C)CC(=O)N[C@@H](CCC(N)=O)C(=O)N[C@@H]1C(=O)N[C@@H](CC(C)C)C(=O)N2CCC[C@@H]2C(=O)N[C@@H](Cc2ccccc2)C(=O)N(C)[C@@H](Cc2ccc(O)cc2)C(=O)N[C@@H](C(C)C)C(=O)O[C@@H]1C [formula IX] (Isovaleryl-QTL[dP]F[NMeY]V; ester 2-C) | 10 nM | 1 nM |  |  |  | 
19 | CCC(C)[C@@H]1NC(=O)[C@H](Cc2ccc(O)cc2)N(C)C(=O)[C@@H](C(C)CC)N2C=CC[C@H](NC(=O)[C@H](CC(C)C)NC(=O)[C@@H](NC(=O)[C@H](CCC(N)=O)NC(=O)C(C)C)[C@@H](C)OC1=O)C2=O (stereo partly shown) [formula V] |  |  |  | 60 nM | 6 nM | 

— patent publication US9127044B2, “Cyclic depsipeptides” (NOVARTIS AG, priority 2007, dated 2015)
